According to patent publication US20120058974A1, “Composition comprising pesticide and benzotriazole UV absorbers” (BASF SE, priority 2009, published 2012):

Columns and labels:
[1] = Determination of the surface tension; type: physicochemical; settings: 25° C.; UV absorber concentrations from about 1 mg/l to 5,000 mg/l
Procedure: The surface tension (ST) of the UV absorbers 1C and 1F was determined at 25° C. at concentrations of the UV absorber of from about 1 mg/l to 5,000 mg/l (Table 4). The ST of water to air is, for comparison, 72.4 mN/m, the ST of commercial surfactants is about 30-35 mN/m. […] It was also shown that UV absorbers according to the invention are similar in surface activity to commercial surfactants.

[2] = UV-stabilizing effect: residual metaflumizone after exposure to light (Atlas Suntest), HPLC; type: physicochemical; settings: dried film; for Residual metaflumizone content (%) after 1 day: continuous light 1 day; for Residual metaflumizone content (%) after 1 week: continuous light seven days
Procedure: UV-Stabilizing Effect A formulation comprising 100 g/l of metaflumizone and 40 g/l of UV absorber was prepared as described in Example 2. The formulation was diluted with water such that an active content of 10 g/l (Table 3) or 1 g/l (Table 4) was obtained.
About 20 mg of the formulation thus prepared were placed on a microscope slide, allowed to dry for 30 minutes and then exposed to light for one or seven days continuously (Atlas Suntest CRT plus, “Outdoor” setting, irradiation corresponds to the same spectrum and intensity as normal sunlight at midday in summer). After the exposure time, the samples were dissolved in dimethyl sulfoxide. The residual level of metaflumizone was determined by means of quantitative HPLC (column: BEH C18 1.7 μm 2.1×100; elution with a gradient of acetonitrile/0.1% H3PO4 rising from 5/95:95/5). For comparison, each exposure series run included a sample without UV absorber (reference). Evaluation: 2 samples were treated as blank samples by immediately redissolving them after drying, without exposure to light, and determining the metaflumizone content. The resulting mean was set equal to 100% and the remaining samples were standardized against that.
A commercial formulation of metaflumizone (Alverde®) comprising 240 g/l of metaflumizone was diluted with water to an active content of 10 g/l. Various UV absorbers were added (Table 5) and analyzed as described under Example 4A.

[3] = Alverde® diluted to 10 g/l metaflumizone, UV absorber added
[4] = formulation 100 g/l metaflumizone + 40 g/l UV absorber diluted to 1 g/l metaflumizone
[5] = formulation 100 g/l metaflumizone + 40 g/l UV absorber diluted to 10 g/l metaflumizone

3-(3-benzotriazol-2-yl-5-tert-butyl-4-hydroxyphenyl)propionic acid [tridecanol-EO18]ester [Example 1F]
ST (surface tension) [1]: 34.7 mN/m

COCCOCCOCCOCCOCCOCCOCCOC(=O)CCc1cc(-n2nc3ccccc3n2)c(O)c(C(C)(C)C)c1 [Example 1C, 3-(3-benzotriazol-2-yl-5-tert-butyl-4-hydroxyphenyl)propionic acid [Pluriol A350E]ester]
ST (surface tension) [1]: 39.5 mN/m
Residual metaflumizone content (%) after 1 day [2, 3]: 34%
Residual metaflumizone content (%) after 1 week [2, 3]: 1%
Residual metaflumizone content (%) after 1 day [2, 4]: 45%
Residual metaflumizone content (%) after 1 week [2, 4]: 16%
Residual metaflumizone content (%) after 1 day [2, 5]: 89%
Residual metaflumizone content (%) after 1 week [2, 5]: 55%

COCCOCCOCCOCCOCCOCCOCCOC(=O)CCc1cc(-n2nc3ccc(Cl)cc3n2)c(O)c(C(C)(C)C)c1 [Example 1J, 2-(5-chloro-2H-benzotriazol-2-yl)-6-tert-butyl-4-hydroxyphenylpropionic acid [Pluriol A350E]ester]
Residual metaflumizone content (%) after 1 day [2, 3]: 46%
Residual metaflumizone content (%) after 1 week [2, 3]: 30%

p-Aminobenzoic acid ethoxylate (45) [Uvinul ® P25]
ST (surface tension) [1]: 56.9 mN/m
